Laboratory results taken from ChEMBL document CHEMBL1201862, “PubChem BioAssay data set” (2004).
Calls of active or inactive are those of the source.

Columns and labels:
[1] = Luminescence Cell-Based Dose Response HTS to Identify Activators of Luciferase Translation or Activity in H4 […] Cells. [Related pubchem assays: 1829 (Project Summary), 1814 (Primary HTS)]; format: functional
[2] = biological target: T1, Protein skinhead-1 (Caenorhabditis elegans, UniProt P34707); format: functional
T1 sequence (P34707 whole entry): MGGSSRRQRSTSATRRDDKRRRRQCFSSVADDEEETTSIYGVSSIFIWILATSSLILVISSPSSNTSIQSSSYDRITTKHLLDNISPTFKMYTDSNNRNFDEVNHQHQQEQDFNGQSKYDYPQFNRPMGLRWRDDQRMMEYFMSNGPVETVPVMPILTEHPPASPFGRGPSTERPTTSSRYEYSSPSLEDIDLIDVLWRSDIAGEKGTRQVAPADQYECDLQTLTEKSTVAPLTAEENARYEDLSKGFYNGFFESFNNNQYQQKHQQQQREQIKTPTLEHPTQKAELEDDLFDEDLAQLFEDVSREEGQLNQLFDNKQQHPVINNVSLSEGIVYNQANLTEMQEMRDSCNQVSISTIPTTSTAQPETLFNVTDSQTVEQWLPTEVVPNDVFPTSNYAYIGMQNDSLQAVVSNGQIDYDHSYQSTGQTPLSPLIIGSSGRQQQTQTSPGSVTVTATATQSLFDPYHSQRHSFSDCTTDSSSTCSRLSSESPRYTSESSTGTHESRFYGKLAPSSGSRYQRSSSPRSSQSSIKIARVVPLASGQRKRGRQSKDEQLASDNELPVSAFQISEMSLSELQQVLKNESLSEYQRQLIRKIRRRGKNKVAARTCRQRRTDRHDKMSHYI

[3] = biological target: T2, Carboxy-terminal domain RNA polymerase II polypeptide A small phosphatase 1 (Homo sapiens, UniProt Q9GZU7); experiment: inhibitors of CTDSP1, concentration-response testing, biochemical assay, absorbance-based, actives from ultra-high-throughput screening (AID 540297); format: functional
T2 sequence (Q9GZU7 whole entry): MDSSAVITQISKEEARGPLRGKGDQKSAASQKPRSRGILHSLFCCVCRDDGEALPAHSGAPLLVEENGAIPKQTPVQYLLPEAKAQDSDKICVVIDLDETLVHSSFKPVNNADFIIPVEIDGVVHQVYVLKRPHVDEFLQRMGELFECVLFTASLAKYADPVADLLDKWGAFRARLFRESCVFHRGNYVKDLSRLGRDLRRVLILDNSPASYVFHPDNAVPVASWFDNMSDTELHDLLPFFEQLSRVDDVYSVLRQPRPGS

[4] = inhibitors of firefly luciferase expression or activity, dose response, H4 neuroglioma cells, luminescence (AID 1990); format: functional, cell-based
[5] = Luminescence Cell-Based Dose Response HTS to Identify Inhibitors of 5'UTR Stem-Loop Driven Prion Protein mRNA Translation in H4 Neuroglioblastoma Cells. [Related pubchem assays: 1827 (Project Summary), 1813 (Primary HTS)]; format: functional
[6] = inhibitors of SNCA 5'UTR-driven reporter translation, confirmation, H4 neuroglioma cells, luminescence (AID 1988); format: functional, cell-based
[7] = biological target: Genome polyprotein (dengue virus type 2, UniProt P29990); experiment: Dengue-2 NS5 methyltransferase inhibitors, primary screen, biochemical, confirmation dose response (AID 588689); format: functional
Chain of Genome polyprotein (P29990 2492-3391 limits assumed): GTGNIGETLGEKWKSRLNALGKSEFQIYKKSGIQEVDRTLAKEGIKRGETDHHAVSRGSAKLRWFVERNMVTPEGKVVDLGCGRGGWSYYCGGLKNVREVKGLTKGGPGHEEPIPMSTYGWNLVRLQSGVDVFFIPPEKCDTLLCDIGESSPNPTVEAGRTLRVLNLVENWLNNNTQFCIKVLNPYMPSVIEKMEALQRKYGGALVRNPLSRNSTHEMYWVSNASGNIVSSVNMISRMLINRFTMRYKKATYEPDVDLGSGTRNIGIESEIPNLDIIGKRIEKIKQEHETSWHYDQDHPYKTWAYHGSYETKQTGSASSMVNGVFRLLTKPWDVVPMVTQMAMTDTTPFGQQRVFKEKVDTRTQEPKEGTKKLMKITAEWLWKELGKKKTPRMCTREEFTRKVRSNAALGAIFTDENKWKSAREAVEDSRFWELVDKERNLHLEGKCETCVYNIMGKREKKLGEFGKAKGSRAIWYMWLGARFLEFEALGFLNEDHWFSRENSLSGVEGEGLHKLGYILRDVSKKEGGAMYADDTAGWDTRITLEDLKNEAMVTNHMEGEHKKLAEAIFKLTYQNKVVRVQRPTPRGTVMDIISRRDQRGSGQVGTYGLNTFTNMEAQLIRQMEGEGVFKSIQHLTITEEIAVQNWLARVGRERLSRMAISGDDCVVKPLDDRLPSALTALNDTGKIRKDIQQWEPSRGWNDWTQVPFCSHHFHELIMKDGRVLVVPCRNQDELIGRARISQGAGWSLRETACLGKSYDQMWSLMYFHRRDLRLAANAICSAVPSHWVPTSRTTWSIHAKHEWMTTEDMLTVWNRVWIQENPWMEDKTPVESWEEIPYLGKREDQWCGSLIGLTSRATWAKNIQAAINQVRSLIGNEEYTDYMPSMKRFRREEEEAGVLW

[8] = biological target: T3, Replicative DNA helicase DnaB (Mycobacterium tuberculosis, UniProt P9WMR3); experiment: DnaB intein splicing inhibitors, dose response, biochemical, cell-free fluorescence (AID 449749); format: functional
T3 sequence (P9WMR3 whole entry): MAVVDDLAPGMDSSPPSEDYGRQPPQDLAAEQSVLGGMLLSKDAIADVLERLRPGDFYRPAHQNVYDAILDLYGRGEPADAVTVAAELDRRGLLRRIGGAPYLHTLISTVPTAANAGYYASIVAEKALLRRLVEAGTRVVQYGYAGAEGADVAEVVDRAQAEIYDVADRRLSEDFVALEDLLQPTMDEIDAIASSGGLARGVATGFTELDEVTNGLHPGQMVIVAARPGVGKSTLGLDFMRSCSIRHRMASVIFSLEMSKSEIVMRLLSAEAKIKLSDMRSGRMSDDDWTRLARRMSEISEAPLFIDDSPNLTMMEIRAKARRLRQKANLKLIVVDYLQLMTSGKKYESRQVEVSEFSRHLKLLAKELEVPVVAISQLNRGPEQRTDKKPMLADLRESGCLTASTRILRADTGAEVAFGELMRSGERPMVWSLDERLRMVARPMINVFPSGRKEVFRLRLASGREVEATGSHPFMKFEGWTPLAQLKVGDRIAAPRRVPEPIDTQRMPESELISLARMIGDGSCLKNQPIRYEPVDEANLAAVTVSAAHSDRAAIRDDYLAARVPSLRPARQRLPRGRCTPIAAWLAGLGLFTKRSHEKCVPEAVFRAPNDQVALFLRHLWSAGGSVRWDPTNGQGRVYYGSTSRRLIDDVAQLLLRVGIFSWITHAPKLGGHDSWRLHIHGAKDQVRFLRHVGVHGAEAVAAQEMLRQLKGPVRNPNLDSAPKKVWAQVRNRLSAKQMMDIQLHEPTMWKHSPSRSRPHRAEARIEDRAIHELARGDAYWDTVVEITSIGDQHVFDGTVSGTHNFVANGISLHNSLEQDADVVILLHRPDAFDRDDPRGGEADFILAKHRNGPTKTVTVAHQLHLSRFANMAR

[9] = biological target: T4, Protein RecA (Mycobacterium tuberculosis, UniProt P9WHJ3); experiment: Fluorescence Cell-Free Homogeneous Dose Retest to Identify Inhibitors of RecA-Intein Splicing Activity. [Related pubchem assays (depositor defined):AID2097, AID2223, AID489010, AID492950]; format: functional
T4 sequence (P9WHJ3 whole entry): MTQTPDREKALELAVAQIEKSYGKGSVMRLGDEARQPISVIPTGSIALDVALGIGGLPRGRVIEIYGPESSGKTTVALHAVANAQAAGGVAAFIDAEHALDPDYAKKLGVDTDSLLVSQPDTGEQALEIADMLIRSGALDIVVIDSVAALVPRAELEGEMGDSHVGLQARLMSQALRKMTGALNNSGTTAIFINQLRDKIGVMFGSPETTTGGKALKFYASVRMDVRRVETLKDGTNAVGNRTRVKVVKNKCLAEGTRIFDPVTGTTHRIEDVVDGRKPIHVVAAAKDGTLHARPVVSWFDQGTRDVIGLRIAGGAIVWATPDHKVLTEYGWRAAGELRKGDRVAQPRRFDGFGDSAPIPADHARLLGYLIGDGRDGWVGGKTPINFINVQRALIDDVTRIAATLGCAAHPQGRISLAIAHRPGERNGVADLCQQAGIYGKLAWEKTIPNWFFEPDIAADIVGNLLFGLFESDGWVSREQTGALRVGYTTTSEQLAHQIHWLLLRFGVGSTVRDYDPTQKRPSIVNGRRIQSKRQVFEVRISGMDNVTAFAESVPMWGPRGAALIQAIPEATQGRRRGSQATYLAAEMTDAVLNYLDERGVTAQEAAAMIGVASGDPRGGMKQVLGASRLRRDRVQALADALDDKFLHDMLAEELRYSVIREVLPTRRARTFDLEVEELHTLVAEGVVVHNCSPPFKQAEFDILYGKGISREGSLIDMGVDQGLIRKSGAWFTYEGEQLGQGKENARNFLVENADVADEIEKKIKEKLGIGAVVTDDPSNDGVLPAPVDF

[10] = biological target: Cytochrome P450 3A4 (Homo sapiens, UniProt P08684);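 further: CYP3A4 tested as one member of a cytochrome P450 panel screen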
Chain of Cytochrome P450 3A4 (P08684 whole entry): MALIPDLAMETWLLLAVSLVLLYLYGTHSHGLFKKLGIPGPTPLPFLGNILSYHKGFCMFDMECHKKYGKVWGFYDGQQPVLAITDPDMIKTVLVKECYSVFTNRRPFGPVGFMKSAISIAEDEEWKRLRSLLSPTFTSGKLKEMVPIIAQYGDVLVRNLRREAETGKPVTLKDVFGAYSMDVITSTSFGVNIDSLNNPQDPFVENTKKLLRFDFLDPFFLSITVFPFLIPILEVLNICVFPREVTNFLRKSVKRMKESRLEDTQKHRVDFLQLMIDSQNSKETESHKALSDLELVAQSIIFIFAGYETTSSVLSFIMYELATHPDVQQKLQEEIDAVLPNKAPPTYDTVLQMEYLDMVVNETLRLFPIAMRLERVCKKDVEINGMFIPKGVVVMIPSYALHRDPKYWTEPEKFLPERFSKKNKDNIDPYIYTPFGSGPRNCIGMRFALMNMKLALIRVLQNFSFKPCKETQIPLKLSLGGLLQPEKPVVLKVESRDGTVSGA

[11] = biological target: Cytochrome P450 2D6 (Homo sapiens, UniProt P10635);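 further: CYP2D6 member of a cytochrome P450 panel assay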
Chain of Cytochrome P450 2D6 (P10635 whole entry): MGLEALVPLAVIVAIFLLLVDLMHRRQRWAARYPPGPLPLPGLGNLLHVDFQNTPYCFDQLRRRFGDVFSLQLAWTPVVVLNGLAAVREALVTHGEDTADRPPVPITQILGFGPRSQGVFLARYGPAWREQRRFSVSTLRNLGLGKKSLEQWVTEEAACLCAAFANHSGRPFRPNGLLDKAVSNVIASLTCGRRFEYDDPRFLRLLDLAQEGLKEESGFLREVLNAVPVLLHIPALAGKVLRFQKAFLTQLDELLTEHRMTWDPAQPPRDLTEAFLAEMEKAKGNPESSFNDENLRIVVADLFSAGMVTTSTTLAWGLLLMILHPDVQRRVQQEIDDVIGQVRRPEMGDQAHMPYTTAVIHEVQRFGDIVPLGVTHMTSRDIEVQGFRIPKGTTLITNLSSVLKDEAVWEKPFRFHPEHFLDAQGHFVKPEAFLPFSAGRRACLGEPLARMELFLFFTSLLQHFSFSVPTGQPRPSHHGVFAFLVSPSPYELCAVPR

[12] = biological target: T5, Cytochrome P450 1A2 (Homo sapiens, UniProt P05177);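 further: PubChem cytochrome P450 panel assay, CYP1A2 panel member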
T5 sequence (P05177 whole entry): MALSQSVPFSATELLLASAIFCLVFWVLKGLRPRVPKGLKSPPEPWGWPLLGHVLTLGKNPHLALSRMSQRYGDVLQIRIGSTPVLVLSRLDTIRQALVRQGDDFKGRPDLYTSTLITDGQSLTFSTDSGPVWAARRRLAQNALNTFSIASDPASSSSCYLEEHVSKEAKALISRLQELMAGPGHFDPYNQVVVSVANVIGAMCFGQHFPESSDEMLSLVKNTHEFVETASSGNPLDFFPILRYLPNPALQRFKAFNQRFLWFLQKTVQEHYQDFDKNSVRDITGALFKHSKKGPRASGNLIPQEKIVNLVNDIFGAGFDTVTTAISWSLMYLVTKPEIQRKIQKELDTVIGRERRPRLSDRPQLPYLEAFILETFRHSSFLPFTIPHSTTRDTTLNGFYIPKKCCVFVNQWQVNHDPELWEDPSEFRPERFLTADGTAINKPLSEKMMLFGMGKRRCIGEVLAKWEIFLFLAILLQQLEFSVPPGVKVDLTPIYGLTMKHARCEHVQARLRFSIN

[13] = biological target: Cytochrome P450 2C9 (Homo sapiens, UniProt P11712)
Chain of Cytochrome P450 2C9 (P11712 whole entry): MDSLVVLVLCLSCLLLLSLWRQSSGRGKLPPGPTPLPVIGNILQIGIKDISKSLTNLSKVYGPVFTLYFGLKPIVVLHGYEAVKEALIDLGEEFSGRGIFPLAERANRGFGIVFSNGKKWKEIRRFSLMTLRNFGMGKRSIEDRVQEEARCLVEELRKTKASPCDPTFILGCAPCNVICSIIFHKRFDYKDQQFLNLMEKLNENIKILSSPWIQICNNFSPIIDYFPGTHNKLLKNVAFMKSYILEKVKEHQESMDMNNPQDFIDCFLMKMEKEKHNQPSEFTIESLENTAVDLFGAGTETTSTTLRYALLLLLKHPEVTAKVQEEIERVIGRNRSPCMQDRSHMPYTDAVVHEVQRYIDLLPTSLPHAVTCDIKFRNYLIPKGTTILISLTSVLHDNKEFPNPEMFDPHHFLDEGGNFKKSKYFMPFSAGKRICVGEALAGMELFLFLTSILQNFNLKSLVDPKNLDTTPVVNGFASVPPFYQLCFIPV

In the case of `O=C(Nc1ccccc1)c1cc2ccccc2c(=O)s1`, the EC50 [1] is reported as 6.73 µM (active).

For `O=C1c2ccccc2C(=O)c2c(NCc3cccnc3)cccc21`, the IC50 [2] was > 100 µM (inactive).

In the case of `O=C(c1ccc(-c2cccc(C(F)(F)F)c2)o1)N1CCOCC1`, the IC50 [2] is reported as > 100 µM (inactive).

For `CCSc1nn2c(=O)c3ccccc3nc2s1`, the EC50 [1] was 0.23 µM (active).

For `CC1CCCC(C)N1C(=O)COC(=O)/C=C/c1ccc(Br)o1` (stereo not given), the IC50 [3] was 19.1 µM (active).

For `CC1(C)C(=O)Nc2ccccc2N1C(=O)COc1ccccc1C#N`, the IC50 [3] was 13.2 µM (active).

In the case of `Cc1cc2c(SCC(=O)Nc3cccc(O)c3)ncnc2s1`, the IC50 [3] is reported as 6.88 µM (active).

For `Oc1nncc(NCCc2ccccc2)c1Cl`, the EC50 [4] was 6.91 µM (active), the EC50 [5] was 25.9 µM (active) and the EC50 [6] was 14.2 µM (active).

In the case of `CCc1sc(/C=C(/C#N)C(N)=S)cc1[N+](=O)[O-]`, the IC50 [7] is reported as 33.9 µM (active).

With `Cc1ccccc1NC(=O)C(=O)NNC(=O)COc1ccc2ccccc2c1` the IC50 [3] was 13.1 µM (active).

With `Cc1cc(N)ccc1-n1nc2ccccc2n1` the EC50 [4] was 22.4 µM (active), the EC50 [5] was 36.4 µM (active) and the EC50 [6] was 35.7 µM (active).

In the case of `O=C(/C=C/c1ccccc1)Nc1ccc(CN2CCOCC2)cc1`, the IC50 [2] is reported as 11.4 µM (active).

With `Cc1cc(C)cc(NC(=S)N(Cc2ccc(Cl)cc2)Cc2ccc(C(=O)O)cc2)c1` the IC50 [7] was 92.1 µM (active).

In the case of `O=C1c2ccccc2OC2(C=Cc3ccccc3O2)N1Cc1ccccc1` (stereo not given), the AC50 [8] is reported as 2.83 µM (active), the EC50 [9] is reported as 166 µM (active) and the IC50 [2] is reported as > 100 µM (inactive).

With `COc1ccc(OCCn2cc(/C=C(\C#N)C(=O)NCc3ccco3)c3ccccc32)cc1` the EC50 [4] was 16.1 µM (active), the EC50 [5] was 27.8 µM (active) and the EC50 [6] was 13.3 µM (active).

For `OCCN1CCN(CC/C=C2/c3ccccc3CSc3ccccc32)CC1`, the EC50 [4] was > 120 µM (not active), the EC50 [5] was > 120 µM (not active) and the EC50 [6] was > 120 µM (not active).

With `Clc1nc(Cl)nc(-c2cn(-c3ccccc3)c3ccccc23)n1` the IC50 [3] was 7.98 µM (active).

In the case of `Cn1/c(=N/C(=O)C2=NNC(=O)CC2)sc2ccccc21`, the EC50 [4] is reported as > 120 µM (not active), the EC50 [5] is reported as > 120 µM (not active) and the EC50 [6] is reported as > 120 µM (not active).

For `CCOC(=O)C(C)C1(O)c2ccccc2-c2ncccc21` (stereo not given), the IC50 [2] was > 100 µM (inactive).

For `O=C(Nc1ccc(Cl)cc1Cl)c1ccc(Br)o1`, the IC50 [2] was > 100 µM (inactive).

With `CC(=O)c1ccc(NC(=O)CN2C(=O)COc3ccc(S(=O)(=O)N4CCCC4)cc32)cc1` the IC50 [3] was 6.65 µM (active).

With `COc1ccc(N2CCN(C(S)=Nc3cc(C)cc(C)c3)CC2)cc1` the EC50 [4] was > 120 µM (not active), the EC50 [5] was > 120 µM (not active) and the EC50 [6] was > 120 µM (not active). For the same compound, the AC50 [10] was 2.51 µM (inconclusive).

In the case of `O=C(CCN1C(=O)/C(=C\c2ccccc2F)SC1=S)Nc1ccc(C(=O)O)c(O)c1`, the AC50 [8] is reported as 11.4 µM (active), the EC50 [9] is reported as 15.2 µM (active) and the IC50 [7] is reported as 32.5 µM (active).

For `CC(O)CC(=O)O` (stereo not drawn) [3-HYDROXYBUTYRIC ACID, (+/-)-], the IC50 [2] was > 100 µM (inactive).

For `Cc1ccc(C=Cc2ccccn2)cc1`, the IC50 [2] was 33.9 µM (active).

In the case of `C=C(C)c1cccc(C(C)(C)NC(=O)N2CCN(c3ncccn3)CC2)c1`, the IC50 [2] is reported as > 100 µM (inactive).

In the case of `O=C1CS/C(=C\[N+](=O)[O-])N1c1ccc(OC(F)(F)F)cc1`, the AC50 [8] is reported as 219 µM (active), the EC50 [9] is reported as 10.9 µM (active) and the AC50 [11] is reported as 15.8 µM (inconclusive). The AC50 [12] was 6.31 µM (inconclusive) and the AC50 [13] was 15.8 µM (inconclusive).

In the case of `COc1ccc(N2CCN(C(=O)C3CCCN3S(=O)(=O)c3cccc4nsnc34)CC2)cc1` (stereo not given), the EC50 [4] is reported as > 120 µM (not active), the EC50 [5] is reported as > 120 µM (not active) and the EC50 [6] is reported as > 120 µM (not active).

For `COc1cc(/C=C2/C(=O)NN(c3ccc(C)c(Cl)c3)C2=O)cc([N+](=O)[O-])c1O`, the IC50 [3] was 6.75 µM (active).

With `N#Cc1cnn2c1nc(N1CCCCC1)c1ccccc12` the EC50 [4] was 10.6 µM (active), the EC50 [5] was 11.3 µM (active) and the EC50 [6] was 12.7 µM (active).
